According to PMC6246607, “Novel AR-12 derivatives, P12-23 and P12-34, inhibit flavivirus replication by blocking host de novo pyrimidine biosynthesis” (Emerging Microbes & Infections, 2018):
“And” between values parts separate entries of the source, which are not always exact repeats. Equal values may be shown once.

Key:
DENV-2-eGFP = assay: microbe, parasite or virus in culture; type: cell-based, dengue virus; settings: for effect on DENV replication: DENV-2-eGFP MOI 5, reversed by exogenous uridine 50 µg/ml; for SI (CC50/IC50): DENV-2-eGFP; for IC50: Dengue virus, DENV2, A549, 24 h
Description: (§1) Approximately 50% of confluent cells seeded in 96-well plates were infected with viruses in the presence of drugs or DMSO as a solvent control. At 24 h post-infection (hpi), cells were fixed with 4% paraformaldehyde at room temperature (RT) for 20 min, permeated with a 0.5% Triton X-100 buffer for 2 min, and blocked with 3% BSA for 30 min. Nuclei were stained with DAPI (Sigma) at RT for 20 min. Viral NS3 was stained with a mouse anti-NS3 monoclonal antibody (mAb)[47] followed by staining with an Alexa Fluor 488-conjugated goat anti-mouse IgG antibody (ThermoFisher) at RT for 1 h. Nine images from different fields per well were acquired and analyzed using an ImageXpress Micro XLS Widefield High-Content Analysis System (Molecular Devices, Sunnyvale, USA). To quantify viral infection, the fluorescence intensities of viral NS3 or eGFP from the reporter virus were measured using MetaXpress® (Molecular Devices, Sunnyvale, USA) and were calculated with a mock control (infection as 0%) and a DMSO solvent control (infection as 100%).

JEV-eGFP = assay: microbe, parasite or virus in culture; type: cell-based, Japanese encephalitis virus; settings: for SI (CC50/IC50): JEV-eGFP; for IC50: Japanese encephalitis virus, A549, 24 h
Description: as §1

[1] = LDH release cytotoxicity assay; type: cell-based, human; settings: human, A549 cells
Description: (§2) Cells were treated with compounds at the indicated concentrations for 24 h. The release of lactate dehydrogenase (LDH) was measured using a Cytotoxicity Detection Kit (Roche, Basel, Switzerland) after removing cell debris. Cells treated with 1% Triton X-100 were used to determine the maximal LDH release.

A549 cells [2] = assay: LDH release cytotoxicity assay; type: cell-based, human; settings: 24 h; for CC50: A549 cells; for noncytotoxic concentrations: human A549 cells
Description: as §2

ZIKV = assay: High-content image analysis of ZIKV infection (NS3) in A549 cells; type: cell-based, Zika virus; settings: ZIKV; for IC50: Zika virus, MOI 0.5, A549 cells, 24 h
Description: as §1

DENV-2 [3] = assay: Viral binding assay; type: cell-based, dengue virus; settings: 1 µM, A549 cells, DENV-2 MOI 5, 4 °C 1 h
Description: A549 cells and DENV-2 separately pretreated with P12-23 (1 µM), P12-34 (1 µM) or heparin (100 unit/ml) at 37 ℃ for 1 h were mixed to allow for viral adsorption at a multiplicity of infection (MOI) of 5 at 4 °C for 1 h. After washing off unbound viruses, RNA was extracted using an RNeasy® Mini Kit (QIAGEN, Hilden, Germany), and viral titers were quantified by real-time RT-PCR as previously described[48] using DENV-2 primers (5′-[…]-3′ and 5′-[…]-3′) and β-actin primers (5′-[…]-3′ and 5′-[…]-3′). After the RNA was normalized to the internal control in each sample, the relative level of viral RNA was determined using the DMSO solvent control.

DENV-2 [4] = assay: Viral translation assay (NS3 western blot); type: cell-based, dengue virus; settings: 1 µM added at 1 hpi, A549 cells, DENV-2 MOI 20
Description: A549 cells absorbed with DENV-2 (MOI 20) at 4 °C for 1 h were washed to remove unbound viruses. After incubating at 37 °C for 1 h to allow viral entry, cells were treated with P12-23 (1 µM), P12-34 (1 µM) or 2′-c-methyladenosine (20 µM). Cells were harvested at 2, 3, 4, and 6 hpi for western blot analysis as previously described[46] with an anti-NS3 mAb[47] and an anti-actin mAb (NB600-501; Novus Biologicals, Littleton, CO, USA). Protein expression levels were quantified using ImageJ.

DENV-2 [5] = assay: Viral RNA replication assay (RT-qPCR); type: cell-based, dengue virus; settings: 1 µM added at 1 hpi versus 2′CMA 20 µM, A549 cells, DENV-2 MOI 5
Description: Viral infection (MOI 5) and drug treatment were performed as described for the virus translation assay. Cells were harvested for real-time RT-PCR analysis after removing the cell-free viruses at 1, 2, 3, 6, 9, 12, 18, and 27 hpi. Viral RNA was quantified and normalized with actin RNA as described for the virus binding assay.

DENV-2 [6] = assay: Viral entry assay; type: cell-based, dengue virus; settings: 1 µM, A549 cells, DENV-2 MOI 5
Description: A549 cells pretreated with P12-23 (1 µM), P12-34 (1 µM) or Pitstop®2 (5 µM) at 37 ℃ for 1 h were absorbed with DENV-2 (MOI 5) at 4 °C for 1 h. After removing the unbound viruses, cells were shifted to 37 ℃ for 30 min for viral entry. The cell surface-associated viruses were then removed by treatment with trypsin-EDTA (ThermoFisher) at 37 °C for 10 min. Viral entry indicated by E protein positivity was determined using a BD FACSCalibur Flow Cytometer (BD) after immunofluorescent staining with an anti-E mAb[47].

A549 cells [7] = assay: ER stress and autophagy western blot in A549 cells; type: cell-based, human; settings: 1 µM, 24 h
Description: Supplementary figure 2. […] A549 cells with or without DENV-2 (MOI 5) infection were treated with P12-23 (1 μM), tunicamycin (TM) (5 μg/ml), thapsigargin (TG) (0.5 μM), or chemical chaperon 4-Phenylbutyric acid (4-PBA) (10 mM) for 24 h. Cell lysates were harvested for western blot analysis with antibodies against the indicated proteins.

For Cc1c(-c2ccc(-c3ccccc3F)cc2)nc2ccc(F)cc2c1C(=O)O [brequinar, reference compound], the “effect on DENV replication” value (DENV-2-eGFP; A549 cells) was “reduced DENV replication in a dose-dependent manner”.

With CC(C)(N)C(=O)Nc1ccc(-n2cc(C(F)(F)F)cc2-c2ccc3c(ccc4ccccc43)c2)cc1 [P12-23] the “relative potency versus AR-12 (fold)” value (JEV-eGFP; JEV, A549 cells) was ~ 10 fold, the “SI (CC50/IC50)” value (JEV-eGFP; A549 cells) was 385.5 ± 11.8 and the IC50 (JEV-eGFP) was 0.0532 ± 0.0016 µM. The “SI (CC50/IC50)” value (DENV-2-eGFP; A549 cells) was 297 and 296.7 ± 35.1, the IC50 (DENV-2-eGFP) was 0.0697 ± 0.0089 µM and the CC50 at 24 h [1] was ~20 µM. The CC50 (A549 cells [2]) was 20.5 ± 0.1 µM, the noncytotoxic concentrations (A549 cells [2]) was ≤ 12.5 µM and the “SI (CC50/IC50)” value (ZIKV; A549 cells) was 158 ± 13.6. The “relative potency versus AR-12 (fold)” value (ZIKV; A549 cells) was ~ 10 fold, the IC50 (ZIKV) was 0.13 ± 0.0117 µM and the “effect on viral binding” value (DENV-2 [3]) was “no suppressive effect”. The “effect on NS3 levels at early stage of infection (viral translation)” value (DENV-2 [4]) was “did not reduce NS3 levels until 4~6 h post-infection”, the “suppression of intracellular viral RNA replication” value (DENV-2 [5]) was “more potent than 2′CMA” and the “effect on viral entry” value (DENV-2 [6]) was “no suppressive effect”. The “induction of ER stress (GRP78, eIF2α phosphorylation) or autophagy (LC3B form II)” value (A549 cells [7]) was “did not significantly induce ER stress”.

In the case of O=C(N[C@@H]1CCCc2c1[nH]c1ccc(Cl)cc21)c1ccccn1 [GSK983, reference compound], the “effect on DENV replication” value (DENV-2-eGFP; A549 cells) is reported as “reduced DENV replication in a dose-dependent manner”.

For NCC(=O)Nc1ccc(-n2nc(C(F)(F)F)cc2-c2ccc3c(ccc4ccccc43)c2)cc1 [AR-12], the “SI (CC50/IC50)” value (JEV-eGFP; A549 cells) was 42.3 ± 4.1, the IC50 (JEV-eGFP) was 0.51 ± 0.0524 µM and the “SI (CC50/IC50)” value (DENV-2-eGFP; A549 cells) was 33 and 33.2 ± 5.9. For the same compound, the IC50 (DENV-2-eGFP) was 0.66 ± 0.13 µM, the “anti-DENV activity with uridine supplement” value (DENV-2-eGFP; uridine 50 µg/ml, P12-23 1 µM, P12-34 1 µM, AR-12 5 µM, A549 cells) was “abolished” and the CC50 at 24 h [1] was ~20 µM. The CC50 (A549 cells [2]) was 21.4 ± 0.2 µM, the noncytotoxic concentrations (A549 cells [2]) was ≤ 12.5 µM and the “SI (CC50/IC50)” value (ZIKV; A549 cells) was 15.8 ± 2. For the same compound, the IC50 (ZIKV) was 1.37 ± 0.177 µM.
